Test results reported in patent publication US20130316965A1, “IDRABI[…] THE TREATMENT OF PULMONARY EMBOLISM AND FOR THE SECONDARY PREVENTION OF VENOUS THRO[…]” (priority 2011, published 2013).

Key:
Format in all cases: in vivo, human
[1] = tested on: patients with symptomatic pulmonary embolism with or without symptomatic deep venous thrombosis; test: CASSIOPEA (EFC6034) phase III clinical trial: symptomatic recurrent PE/DVT (efficacy)
Description: Patients with confirmed symptomatic PE with or without acute symptomatic DVT are eligible for this trial. Treatment with a therapeutic dose of any LMWH or UFH or fondaparinux is allowed only within the 36 hours immediately preceding randomization. Randomization is performed as soon as the diagnosis of PE (and DVT if concomitant suspected symptomatic DVT) is confirmed.
(§1) A blinded central and independent adjudication committee (CIAC) assesses PE (and DVT when applicable), all episodes of locally confirmed or doubtful PE/DVT recurrences, clinically relevant bleedings and deaths. Adjudication results are the basis for the final analyses.
Patients in the 3-month stratum have an additional 13-week observational period after cessation of study treatment. Patients in the 6-month stratum have a 13-week up to 26-week observational period.
Injections of SSR126517E (or its placebo) is started 12 h after the last post-randomization enoxaparin administration. SSR126517E (or its placebo) is administered s.c. once-weekly for a period of 3 or 6 months. All patients receive a first 0.5 ml injection (3.0 mg in the SSR126517E group). The following injections are also 0.5 ml, except in patients with severe renal insufficiency (defined as creatinine clearance <30 mL/min), who decrease to a dosage of 0.3 ml (1.8 mg in the SSR126517E group).
The primary efficacy outcome is symptomatic recurrent PE/DVT (fatal or not), as validated by the CIAC, within 99 days for patients from both strata (3- and 6-month treatments).
A secondary efficacy outcome for patients in the 6-month stratum is symptomatic recurrent PE/DVT, as validated by the CIAC, within 190 days.
There are 2 additional efficacy outcomes: • the time to first symptomatic recurrent PE/DVT (fatal or non fatal) within the patient's treatment period, i.e. a combined analysis of the 3-and 6-month strata patients; • the separate components of the efficacy outcomes within 99 days (all patients) and within 190 days (6-month stratum patients only).
The definitions to confirm a suspected symptomatic episode of recurrent PE/DVT are as follows:
Efficacy analyses are performed on the—All-randomized—population (patients with a patient number and an allocated treatment number recorded in the IVRS database).
The secondary efficacy outcome (VTE recurrence within 190 days) for patients in the 6-month stratum is analyzed using the same method and applying the same non-inferiority margin.
Time to first symptomatic recurrent PE/DVT within the patient's study treatment period for all patients is analyzed using Cox's proportional hazards model, stratified on intended treatment duration.

[2] = tested on: patients with symptomatic pulmonary embolism with or without symptomatic deep venous thrombosis; test: CASSIOPEA (EFC6034) phase III clinical trial: clinically relevant bleeding (safety)
Source text: According to the instant invention, the term “bleedings” designates any clinically relevant bleeding (i.e. major or clinically relevant non-major hemorrhage).
According to the instant invention, the term “major bleedings” designates any of the following clinical situations: • bleeding associated with a fall in hemoglobin of 2 g per deciliter or more, • bleeding that led to a transfusion of 2 or more units of packed red cells or whole blood (a red cell unit being defined as the quantity of red cells obtained from or corresponding to approximately 500 ml of whole blood), • bleeding that involved a critical organ (intracranial, intraocular, intraspinal, retroperitoneal or pericardial), • bleeding that contributed to death.
as §1
The principal safety outcome is any clinically relevant bleeding as classified by the CIAC (i.e. major bleeding and other clinically relevant non-major bleeding).
Bleeding analyses are also performed on the—All-randomized—population. Other safety analyses are performed on the—All-treated—population.
Rates of clinically relevant bleedings are calculated in each treatment group at 3 months (99 days) and 6 months (190 days) and compared between treatment groups using a Mantel-Haenszel chi-square stratified on intended treatment duration. Cumulative incidences of clinically relevant bleedings during the combined 3-month and 6-month period and up to the end of study are described by treatment group using the Kaplan Meier method.

[3] = tested on: patients with symptomatic pulmonary embolism with or without symptomatic deep venous thrombosis; test: CASSIOPEA (EFC6034) phase III clinical trial: deaths; conditions: overall
Source text: as §1

[4] = tested on: patients with symptomatic pulmonary embolism with or without symptomatic deep venous thrombosis; test: CASSIOPEA (EFC6034) phase III clinical trial: benefit-risk assessment (PE, DVT or major bleeding composite); conditions: Randomized population; composite endpoint
Source text: Tables 13 and 14 show the incidence of pulmonary embolism, deep venous thrombosis or major bleedings (composite endpoint) in the randomized population in the treatment phase (3-month or 6-month treatment with idrabiotaparinux) and up to the end of the study (assessment at 12 months).

[5] = Randomized population, All patients
[6] = Randomized population, Patients with VKA beyond D99/D190
[7] = Randomized population, Patients with no VKA beyond D99/D190
[8] = Randomized population, or death for which PE could not be ruled out
[9] = combined 3-month and 6-month periods, time-to-event analysis (Kaplan-Meier)
[10] = treatment period plus 3 to 6-month post-treatment follow-up (up to end of study)

CC(=O)CC(c1ccccc1)c1c(O)c2ccccc2oc1=O (centres unmarked) [Warfarin, warfarin, reference compound]
DVT only within 190 days from randomization: Patients with event ([1]; 6-month stratum): 17 (1.3%) n (%)
Non-fatal PE within 190 days from randomization: Patients with event ([1]; 6-month stratum): 10 (0.8%) n (%)
Symptomatic recurrent PE/DVT (fatal or not) from randomization to end of study: Patients with event ([1]; 6-month stratum, All patients): 76 (6.0%) n (%)
Symptomatic recurrent PE/DVT (fatal or not) from randomization to end of study: Patients with event ([1]; 6-month stratum, Patients with VKA beyond D190): 37 (9.1%) n (%)
Symptomatic recurrent PE/DVT (fatal or not) from randomization to end of study: Patients with event ([1]; 6-month stratum, Patients with no VKA beyond D190): 39 (4.5%) n (%)
Fatal PE within 190 days from randomization: Patients with event ([1]; 6-month stratum, or death for which PE could not be ruled out): 9 (0.7%) n (%)
Patients who experienced DVT up to Day 190 ([1]; 6-month stratum, up to Day 190): 1.3%
DVT only up to the end of study: Patients with event ([1]; Randomized population): 31 (1.9%) n (%)
DVT only within 99 days from randomization: Patients with event ([1]; Randomized population): 18 (1.1%) n (%)
Non-fatal PE up to the end of study: Patients with event ([1]; Randomized population): 41 (2.6%) n (%)
Non-fatal PE within 99 days from randomization: Patients with event ([1]; Randomized population): 9 (0.6%) n (%)
Symptomatic recurrent PE/DVT (fatal or not) within 190 days from randomization: Patients with event ([1]; Randomized population in the 6-month stratum): 36 (2.8%) n (%)
Symptomatic recurrent PE/DVT (fatal or not) from D100/D191 to end of study: Patients with event [1, 5]: 47 (3.1%) n (%)
Symptomatic recurrent PE/DVT (fatal or not) from randomization to end of study: Patients with event [1, 5]: 97 (6.1%) n (%)
Symptomatic recurrent PE/DVT (fatal or not) from D100/D191 to end of study: Patients with event [1, 6]: 32 (6.6%) n (%)
Symptomatic recurrent PE/DVT (fatal or not) from randomization to end of study: Patients with event [1, 6]: 45 (9.3%) n (%)
Symptomatic recurrent PE/DVT (fatal or not) from D100/D191 to end of study: Patients with event [1, 7]: 15 (1.5%) n (%)
Symptomatic recurrent PE/DVT (fatal or not) from randomization to end of study: Patients with event [1, 7]: 52 (4.6%) n (%)
Fatal PE up to the end of study: Patients with event [1, 8]: 25 (1.6%) n (%)
Fatal PE within 99 days from randomization: Patients with event [1, 8]: 16 (1.0%) n (%)
Symptomatic recurrent PE/DVT (fatal or not) within 99 days from randomization: Patients with event ([1]; Randomized population, within 99 days): 43 (2.7%) n (%)
Cumulative incidence of symptomatic recurrent PE/DVT at Day 99 [1, 9]: 2.7%
Cumulative incidence of symptomatic recurrent PE/DVT at Day 190 [1, 9]: 3.4%
Cumulative incidence rate of symptomatic recurrent PE/DVT at Day 360 [1, 10]: 7.2%
Patients who experienced DVT up to Day 99 ([1]; up to Day 99): 1.1%
Patients who experienced DVT up to the end of study ([1]; up to the end of study): 1.9%
Patients who experienced non-fatal PE up to the end of study ([1]; up to the end of study): 2.6%
Clinically relevant bleedings up to Day 190 ([2]; 6-month stratum): 8.1%
Fatal bleeding within 190 days from randomization: Patients with event ([2]; 6-month stratum): 5 (0.4%) n (%)
Intracranial haemorrhage (fatal or not) within 190 days from randomization: Patients with event ([2]; 6-month stratum): 6 (0.5%) n (%)
Major bleeding within 190 days from randomization: Patients with event ([2]; 6-month stratum): 36 (2.8%) n (%)
Patients who experienced a major bleeding up to Day 190 ([2]; 6-month stratum): 2.8%
Any clinically relevant bleeding within 99 days from randomization: Patients with event ([2]; Randomized population): 106 (6.6%) n (%)
Fatal bleeding within 99 days from randomization: Patients with event ([2]; Randomized population): 6 (0.4%) n (%)
Intracranial haemorrhage (fatal or not) within 99 days from randomization: Patients with event ([2]; Randomized population): 7 (0.4%) n (%)
Major bleeding within 99 days from randomization: Patients with event ([2]; Randomized population): 39 (2.4%) n (%)
Cumulative incidence of clinically relevant bleeding at Day 99 [2, 9]: 6.7%
Cumulative incidence of clinically relevant bleeding at Day 190 [2, 9]: 9.1%
Cumulative incidence rate of clinically relevant bleeding at Day 360 [2, 10]: 10.0%
Incidence of clinically relevant bleeding up to Day 99 ([2]; up to Day 99): 6.6%
Patients who experienced a major bleeding up to Day 99 ([2]; up to Day 99): 2.4%
Patients who died on study [3]: 5.3%
PE, DVT or major bleeding in the combined 3-month and 6-month period: Patients with event [4]: 98 (6.1%) n (%)
PE, DVT or major bleeding up to the end of study: Patients with event [4]: 150 (9.4%) n (%)
